Results: patent US7790160B2, “Method of treating CD30 positive lymphomas” (Medarex, Inc., priority 2004, dated 2010)
Entries after “also recorded” stand apart in the source; their conditions may differ. Where a SMILES comes first, the peptide text is derived from it. The star is where a group is joined. Cbz = O=C(OCc1ccccc1)*

Columns and labels:
L540 cells [1] = test: Annexin V binding assay (annexinV-FITC staining, FACS); type: cell-based, human; details: each agent alone, subtoxic concentrations
Procedure: FIG. 1: Induction of apoptosis in L540 cells after treatment with 5F11 and MG132 L540 cells were cultured for 16 h with PBS (control), crosslinked 5F11, MG132 or a combination of 5F11 and MG132. The apoptotic cells were labeled by annexinV-FITC staining and the percentage of viable and apoptotic cells is given as estimated in FACS analysis. The results of three independent experiments are shown.
2×10^5 L540 cells were incubated (in triplicate) either with 5F11/GaH, bortezomib, or both, or in plain medium as described above at 37° C. for 12 h. To detect apoptotic cells, the translocation of phosphatidylserine to the outer leaflet of the plasma membrane was determined by flow cytometry (FACS calibur Bengton & Dickinson Flow Cytometer) after staining with annexin V conjugated to fluorescein as recommended (Annexin V-FITC apoptosis detection kit I, BD Bioscience, USA). Triplicateswere used to calculate means and standard deviations.

c-flip in L540 cells = test: SDS-PAGE and Western blotting; type: cell-based, human; details: CD30 stimulation with 5F11, co-incubation with bortezomib for 6, 8 and 16 hours
Procedure: (§1) Whole cell protein extracts were prepared in 1× Laemmli solution (10 μg) were separated using sodium dodecyl sulfate polyacrylamide gel electrophoresis (SDS-PAGE) using 4-15% gels. Proteins were transferred to a nitrocellulose membrane (Hybond-C, Amersham Pharmacia Biotech Inc., Freiburg, Germany) and blocked with Roti-Block (Roth, Karlsruhe, Germany) for 1 h at room temperature. Immunoblots were incubated with the primary antibodies obtained from the Apoptosis Sampler Kits I and II (BD Bioscience, CA) in PBS with 10% fetal calf serum as recommended. The c-flip specific antibody was purchased from Sigma (F-6550). Bound antibodies were detected with horseradish peroxidase-conjugated secondary donkey-anti-mouse or rabbit-IgG mAb (Dianova, Hamburg, Germany) or horseradish peroxidaseconjugated goat-anti-mouse IgG (Dianova) diluted 1/10000. The proteins were visualized using the ECL Western blotting detection reagents (Amersham Pharmacia) according to manufacturers instructions.

c-flip in L428 cells = test: SDS-PAGE and Western blotting; type: cell-based, human; details: CD30 stimulation with 5F11, co-incubation with bortezomib for 6, 8 and 16 hours
Procedure: as §1

[2] = tested on: bcl-2, bax, TRADD and FADD; test: SDS-PAGE and Western blotting of candidate proteins related to NF-κB activation; type: cell-based, human; details: following 5F11 crosslinking or bortezomib treatment
Procedure: as §1

[3] = tested on: NF-κB-responsive luciferase reporter gene in L428 cells; test: Transient transfection and luciferase reporter gene assay; type: cell-based, human; details: L428 transfected with pNF-κB-luc
Procedure: L428 cells were transfected with either the reporter constructs pCMV-luc (transfection control) or pNF-κB-luc (bar 2-4) or pNF-κB-luc together with the expression vector IkBM (bar 5-7). The transfection efficacy was about 10% and the total amount of DNA was kept constant. After an over night recovery period transfectants were treated with PBS (basal), 5F11 or bortezomib for 24 hours. The luciferase activity (RLU) of the cells were measured and is given to indicate the relative levels of NF-κB-dependent promoter activity.
5×10^6 L428 cells in 1 ml medium were transiently transfected by means of electroporation with 10 μg NF-κB-luc, IkBaM and CMV-GFP. Cells were seeded into six-well plates with additional 2 ml of plain medium. After 24 h incubation at 37° C., GFP transfected cells were examined for green flourescence as indicator of transfection efficacy, which varied from 5% to 10%. Cells were incubated either with 20 μg/ml 5F11+100 μg/ml GaH for 2 h, or with 10 ng/ml bortezomib or both or plain media for 12 h at 37° C. After harvesting the cells were washed twice in PBS (phosphate buffered saline).
Lysis was performed using 1 ml ice-cold reporter lysis buffer (Promega), and lysates were frozen at −70° C. for 1 hour. Luciferase activity was measured using 30 μl lysate in a 96-well luminometry-plate and analyzed by luminometry. Untreated cells, transfected with the reporter gene were used to obtain baseline NF-κB-activity. All assays were done in triplicate to obtain means and standard deviations.

Karpas 299 cells = test: XTT viability assay; details: Karpas299, 5F11 + GaH pre-incubated 30 minutes, versus absence of 5F11, 48 hours
REH cells [4] = test: XTT viability assay, CD30-negative control line; details: REH cells (do not express CD30), bortezomib alone
Text: (§5) An XTT-assay showing viability of the Hodgkin cell lines L540 (A), L428 (B) and the ALCL line Karpas299 (C) and the CD30 negative cell line REH (E) after exposure to increasing amounts of bortezomib in the presence (diamond) or absence (triangle) of 5F11.

[5] = tested on: subcutaneous L540Cy Hodgkin tumors; test: Xenograft model of human HD; type: in vivo; details: SCID mice; for tumor growth compared to the control group receiving PBS: 100 μg 5F11 i.p., 10 ng bortezomib i.v. 6 hours later, 4 injections; for tumor growth in the weeks after treatment: several weeks after the 4 injections
Procedure: FIG. 3: Effect of 5F11 and bortezomib on the tumor growth of subcutaneous L540Cy Hodgkin tumors in SCID mice. The mice were randomly divided into four groups when the L540 derived tumors reached a volume of about 100 mm3 to receive PBS, 5F11 (100 μg), bortezomib (10 ng) or the combination of 5F11 and bortezomib. The tumor volume of each mouse is given. The arrows indicate the days of treatment.
The xenograft model of human HD has been described previously (17). Subcutaneous solid L540Cy tumors were established by injection of L540Cy cells (1×10^7) resuspended in 200 μL PBS into the right flank of pathogen-free severe combined immunodeficiency (SCID) mice (FOX CHASE SCID; Taconic M&B A/S, Ry, Denmark). Tumor development was measured every 3 days and the tumor volume was determined using the formula (length×width×height/2). Animals with established tumors of about 100 mm^3 were divided randomly into four groups, which received 100 μg 5F11 (in 200 μL PBS intraperitoneally) and 6 hours later 10 ng bortezomib i.v. by tail vein or each agent alone for a total of 4 injections. Control mice received PBS only. The experiment was stopped and the mice killed when the median […] in the control group exceeded 2500 mm^3 (day 50). The treatment and control groups consisted of 4 animals each and results were confirmed by repeating the experiments.

L428 cells [6] = test: XTT viability assay; type: cell-based, human
Text: (§2) Each measurement was done in triplicate.

L540 cells [7] = test: XTT viability assay; type: cell-based, human
Text: as §2

[8] = tested on: NF-κB subunit p65 in L540 cells; test: Detection of NF-κB subunit p65 with indirect immunofluorescence; type: cell-based, human; details: for expression level and nuclear localisation of NF-κB (p65 staining): L540 cells, crosslinked 5F11 or bortezomib
Procedure: (§3) Cytospins were provided (1 min at 1000 U/min) to determine the effect of 5F11 and/or bortezomib on apoptosis and NFκB-activation in L428 and L540 cells on the single cell level. 2×10^5 cells were seeded in six-well microtiter plates in 3 ml plain media (control) or with 5F11+GaH (5 μg/25 μg per ml) or bortezomib (10 nM) or both. Incubation time was 30 min for 5F11, 1 h for crosslinking GaH and at least six hours for bortezomib, all at 37° C. The slides were dried overnight at room temperature and fixed using ice-cold acteone (30 sec incubation). The TUNEL assay was performed using the In Situ Cell Death Detection Kit, TMR red (Roche) according to the manufacturers instructions. Finally, cells were mounted with VECTASHIELD Mounting Medium containing DAPI (Vector Laboratories, Burlingame, Calif.) or stained with an rabbit-anti-p65 antibody (Santa Cruz, 10 nM) and a second FITC-labeled mouse-anti-rabbit antibody (10 nM). Cytospin preparations were analyzed by fluorescence microscopy.
In order to exclude non-specific antibody binding, slides of untreated cells were stained either with rabbit-anti-p65-IgG, or FITC-conjugated mouse-anti-rabbit-IgG, or DAPI.

L428 cells [9] = details: 5F11 alone, even at higher concentrations (ref. 17); cited from earlier work
L540 cells [10] = test: TUNEL assay with 5F11 binding staining (GaH-FITC); type: cell-based, human
Procedure: as §3
The cellular reponse to 5F11 in the partial apoptosis-resistent HD-derived cell line L540 on the single cell level was analyzed. To visualize binding of 5F11 and apoptosis simultaneously, L540 cells were incubated with 5F11 and a FITC labeled crosslinking goat-anti human antibody before performing a TUNEL assay. […]

[11] = tested on: NF-κB DNA binding in L540 cells; test: Electrophoretic mobility shift assay (EMSA); type: cell-based, human; details: L540 nuclear extract, crosslinked antibody
Procedure: (§4) Electrophoretic mobility shift assays (EMSA) were performed to visualize binding of NF-κB to DNA. Nuclear protein extract (5 μg; 20 mM HEPES, pH 7.9, 400 mM NaCl, 1 mM EDTA, 1 mM EGTA) from cells treated with different antibodies were incubated with ^32P-labeled oligonucleotides with the NF-κB binding sequence (Santa Cruz) for 30 minutes at room temperature. The DNA/protein complexes were separated using electrophoresis on 6% native polyacrylamide gels.

[12] = tested on: NF-κB DNA binding in L428 cells; test: Electrophoretic mobility shift assay (EMSA); type: cell-based, human; details: L428 nuclear extract, crosslinked antibody
Procedure: as §4

REH cells [13] = tested on: REH cells
Text: as §5

Molecule | enhancement of apoptosis compared to the control (annexin-V staining and FACS analysis) (L540 cells [1]) | expression of c-flip (Western blotting) (c-flip in L540 cells) | expression of c-flip (Western blotting) (c-flip in L428 cells) | bcl-2 and bax expression (Western blotting) [2] | expression levels of TRADD and FADD (Western blotting) [2] | tumor growth compared to the control group receiving PBS [5] | tumor growth in the weeks after treatment [5] | expression level and nuclear localisation of NF-κB (p65 staining) [8] | also measured
CC(C)C[C@@H](C=O)NC(=O)[C@H](CC(C)C)NC(=O)[C@H](CC(C)C)NC(=O)OCc1ccccc1 [MG132, carbobenzoxyl-leucinyl-leucynil-leucynal, reference compound] (Cbz-Leu-Leu-Leu-aldehyde) | did not enhance apoptosis | – | – | – | – | – | – | – | –
CC(C)C[C@H](NC(=O)[C@H](Cc1ccccc1)NC(=O)c1cnccn1)B(O)O [bortezomib, reference compound] | – | downregulation | downregulation | Only minor changes | remained unaltered | significantly delayed tumor growth | tumor progression | exclusion of NF-κB from the cell nuclei | 5F11-induced activation of the NF-κB reporter gene in the presence of bortezomib [3]: supressed; basal activity of the NF-κB reporter [3]: reduced; IC50 of bortezomib in the presence of 5F11 (Karpas 299 cells): decreased; cytotoxicity (XTT) (REH cells [4]): killed by bortezomib in a dose dependent manner; IC50 of bortezomib in the presence of 5F11 (L428 cells [6]; L428, 5F11 + GaH pre-incubated 30 minutes, versus absence of 5F11, 48 hours): decreased; IC50 of bortezomib in the presence of 5F11 (L540 cells [7]; L540, 5F11 + GaH pre-incubated 30 minutes, versus absence of 5F11, 48 hours): decreased; cell viability (XTT) (L540 cells [7]; L540, bortezomib 25 ng/ml, with or without pre-treatment with subtoxic 5F11 + GaH, 48 h): minimal reduction of viability; 5F11-induced NF-κB staining increase and nuclear accumulation in the presence of bortezomib ([8]; L540, bortezomib given 30 minutes after 5F11 stimulation, observed after 6 and 8 hours): inhibited
5F11: fully human monoclonal antibody directed against CD30; VH SEQ ID NO: 10, VL SEQ ID NO: 12 (antibody, listed as Homo sapiens, V domains shown) VH: QVQLQQWGAGLLKPSETLSLTCAVYGGSFSAYYWSWIRQPPGKGLEWIGDINHGGGTNYNPSLKSRVTISVDTSKNQFSLKLNSVTAADTAVYYCASLTAYWGQGSLVTVSS VL: DIQMTQSPTSLSASVGDRVTITCRASQGISSWLTWYQQKPEKAPKSLIYAASSLQSGVPSRFSGSGSGTDFTLTISSLQPEDFATYYCQQYDSYPITFGQGTRLEIK | did not enhance apoptosis | induced strongly | induced strongly | Only minor changes | remained unaltered | significantly delayed tumor growth | tumor progression | increased; also recorded: nuclear accumulation | sensitivity of L428 cells to 5F11 (L428 cells [9]): resistant; activation of the NF-κB reporter gene (luciferase activity) ([3]; stimulation with 5F11): about two-fold; binding of 5F11 (staining with GaH-FITC) (L540 cells [10]; L540 cells incubated with 5F11 and FITC labeled crosslinking goat-anti human antibody): All L540 cells were stained; apoptosis on the single cell level (TUNEL assay) (L540 cells [10]; L540 cells, 5F11 crosslinked with GaH, subtoxic concentrations in the combination): only a subset of the cells were rendered apoptotic; DNA-binding activity of NF-κB (EMSA) [11]: enhanced DNA binding; DNA-binding activity of NF-κB (EMSA) [12]: enhanced DNA binding; effect of pre-incubation with 5F11 on the cytotoxic potential of bortezomib (REH cells [13]): no effect; enhancement of the cytotoxic activity of bortezomib, reversed sequence (L428 cells [6]; L428 first incubated with bortezomib for 30 minutes, then with the antibody): does not increase; also recorded: did not enhance
